Publication doi:10.1101/2021.07.14.452003v1 (biorxiv, 2021)

The compounds below were run against M. tuberculosis RnhC (Mt RnhC; Rv2228c; M. tuberculosis RNase HI) (Mycobacterium tuberculosis, UniProt P9WLH5) (assay: biochemical).
Chain of M. tuberculosis RnhC (Mt RnhC; Rv2228c; M. tuberculosis RNase HI) (P9WLH5 whole entry): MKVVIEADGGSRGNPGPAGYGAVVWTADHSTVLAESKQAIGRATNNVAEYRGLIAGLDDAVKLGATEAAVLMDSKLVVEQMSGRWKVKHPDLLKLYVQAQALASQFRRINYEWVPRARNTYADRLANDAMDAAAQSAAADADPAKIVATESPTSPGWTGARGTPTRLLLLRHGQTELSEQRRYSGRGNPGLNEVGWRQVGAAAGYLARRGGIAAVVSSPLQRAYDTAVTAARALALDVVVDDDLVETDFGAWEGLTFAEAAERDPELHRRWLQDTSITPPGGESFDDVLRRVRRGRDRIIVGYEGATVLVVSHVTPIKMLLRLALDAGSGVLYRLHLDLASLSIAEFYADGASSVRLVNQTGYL

| SMILES | IC50 [µM] |
| --- | --- |
| O=S(=O)(N/N=C/c1c(O)ccc2ccccc12)c1cc(Cl)c(Cl)cc1Cl [NSC99726] | 45 |
| COc1ccc(C2COc3cc(O)c(O)cc3C2)cc1 (stereo not shown) [NSC600285] | 17 |
| CC(C)c1ccc(O)c(=O)c(O)c1 [NSC18806] | 32 |
| Oc1ccc(-c2csc(Nc3ccccn3)n2)cc1O [NSC353720] | 12 |
